# Measurements reported in patent publication US9266883B2, “Ring-fused bicyclic pyridyl derivatives as FGFR4 inhibitors” (Novartis AG, priority 2013, dated 2016).
# Where two headings read alike, the source gives them in different places.
# Assays:
# [1] = biological target: FGFR4 (GST-FGFR4(388-802)) (Homo sapiens (Human), UniProt P22455); assay: In-vitro biochemical kinase assay for FGFR4 (Caliper microfluidic mobility shift)
# Tel-FGFR4 = Tel-FGFR4 (Homo sapiens (Human), UniProt P22455); assay: In vitro cellular kinase assay for FGFR4 (BaF3-Tel-FGFR4 cells, MSD capture ELISA of tyrosine phosphorylation); type: cell-based
# Sequence of Tel-FGFR4 (P22455 other isoform, or with tags, fused parts or gaps): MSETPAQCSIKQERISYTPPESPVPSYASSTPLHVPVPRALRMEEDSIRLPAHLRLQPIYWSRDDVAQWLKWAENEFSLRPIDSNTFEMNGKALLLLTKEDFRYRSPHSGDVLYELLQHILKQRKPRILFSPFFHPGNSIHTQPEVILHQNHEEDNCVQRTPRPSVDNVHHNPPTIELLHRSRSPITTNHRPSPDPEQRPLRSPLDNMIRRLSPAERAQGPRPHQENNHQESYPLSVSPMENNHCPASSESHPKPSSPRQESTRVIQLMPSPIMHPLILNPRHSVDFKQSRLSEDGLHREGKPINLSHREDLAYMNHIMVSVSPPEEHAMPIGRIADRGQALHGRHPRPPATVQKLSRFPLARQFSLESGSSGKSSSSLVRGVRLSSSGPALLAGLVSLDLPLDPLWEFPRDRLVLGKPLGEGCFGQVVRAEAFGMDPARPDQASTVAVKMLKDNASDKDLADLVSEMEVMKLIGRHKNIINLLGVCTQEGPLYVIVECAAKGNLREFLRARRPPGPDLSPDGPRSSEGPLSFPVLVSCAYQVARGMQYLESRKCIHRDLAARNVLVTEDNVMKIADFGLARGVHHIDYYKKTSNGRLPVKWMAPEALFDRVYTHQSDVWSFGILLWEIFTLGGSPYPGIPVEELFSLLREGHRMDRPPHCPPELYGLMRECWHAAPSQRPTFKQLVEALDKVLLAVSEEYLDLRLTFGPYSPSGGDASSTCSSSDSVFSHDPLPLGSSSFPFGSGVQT
# [2] = biochemical FGFR4 assay, read-out: Biochemical IC50
# [3] = Cellular BaF3 FGFR4 assay, read-out: Cellular IC50
# [4] = read-out: Biochemical FGFR4 IC50
# [5] = BaF3-Tel-FGFR4 cells, 1 hour incubation, read-out: Cellular BaF3 FGFR4 IC50
# Sequence of FGFR4 (GST-FGFR4(388-802)) (P22455 388-802): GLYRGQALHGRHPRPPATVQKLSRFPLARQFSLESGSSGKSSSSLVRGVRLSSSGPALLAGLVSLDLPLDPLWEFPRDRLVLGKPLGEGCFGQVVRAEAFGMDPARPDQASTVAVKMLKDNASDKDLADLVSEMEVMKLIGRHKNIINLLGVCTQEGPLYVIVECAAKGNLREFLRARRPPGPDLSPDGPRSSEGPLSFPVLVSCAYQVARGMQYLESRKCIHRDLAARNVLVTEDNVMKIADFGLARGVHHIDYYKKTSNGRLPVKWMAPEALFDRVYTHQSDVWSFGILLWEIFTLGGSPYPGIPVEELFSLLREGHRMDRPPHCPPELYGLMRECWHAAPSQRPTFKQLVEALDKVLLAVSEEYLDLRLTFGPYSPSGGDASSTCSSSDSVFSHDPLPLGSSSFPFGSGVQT
SMILES,"IC50 [1, 2] [nM]",IC50 (Tel-FGFR4; [3]) [nM],"IC50 [1, 4] [nM]",IC50 (Tel-FGFR4; [5]) [nM]
"CN1CCN(Cc2cc3c(nc2C=O)N(C(=O)Nc2cc(NC(C)(C)C)c(C#N)cn2)CCC3)C(=O)C1 [N-(4-(tert-butylamino)-5-cyanopyridin-2-yl)-7-formyl-6-((4-methyl-2-oxopiperazin-1-yl)methyl)-3,4-dihydro-1,8-naphthyridine-1(2H)-carboxamide]",1.8,11.5,–,–
"COC[C@H](C)Nc1cc(NC(=O)N2CCCc3cc(CN(C)C(C)=O)c(C=O)nc32)ncc1C#N [(S)-N-(5-cyano-4-((1-methoxypropan-2-yl)amino)pyridin-2-yl)-7-formyl-6-((N-methylacetamido)methyl)-3,4-dihydro-1,8-naphthyridine-1(2H)-carboxamide]",1,4.2,–,–
"CC(=O)N(C)Cc1cc2c(nc1C=O)N(C(=O)Nc1cc(OCC(C)C)c(C#N)cn1)CCC2 [N-(5-cyano-4-isobutoxypyridin-2-yl)-7-formyl-6-((N-methylacetamido)methyl)-3,4-dihydro-1,8-naphthyridine-1(2H)-carboxamide]",1.3,6,–,–
"CC(C)(O)CNc1cc(NC(=O)N2CCCc3cc(CO)c(C=O)nc32)ncc1C#N [Example 86, N-(5-cyano-4-((2-hydroxy-2-methylpropyl)amino)pyridin-2-yl)-7-formyl-6-(hydroxymethyl)-3,4-dihydro-1,8-naphthyridine-1(2H)-carboxamide]",–,–,4.9,12
"O=Cc1nc2c(cc1CO)CCCN2C(=O)Nc1cc(O[C@H]2CCOC2)ccn1 [Example 71, (S)-7-formyl-6-(hydroxymethyl)-N-(4-((tetrahydrofuran-3-yl)oxy)pyridin-2-yl)-3,4-dihydro-1,8-naphthyridine-1(2H)-carboxamide]",–,–,810,1570

# Further compounds by falling IC50 [1, 2], results first:
"IC50 [1, 2] [nM]",IC50 (Tel-FGFR4; [3]) [nM],SMILES,"IC50 [1, 4] [nM]",IC50 (Tel-FGFR4; [5]) [nM]
2.5,5.7,"COC[C@H](C)Nc1cc(NC(=O)N2CCCc3cc(CN4CCOCC4=O)c(C=O)nc32)ncc1C#N [(S)-N-(5-cyano-4-((1-methoxypropan-2-yl)amino)pyridin-2-yl)-7-formyl-6-((3-oxomorpholino)methyl)-3,4-dihydro-1,8-naphthyridine-1(2H)-carboxamide]",–,–
2.4,4.6,"COC[C@@H](C)Nc1cc(NC(=O)N2CCCc3cc(CN4CCOCC4=O)c(C=O)nc32)ncc1C#N [(R)-N-(5-cyano-4-((1-methoxypropan-2-yl)amino)pyridin-2-yl)-7-formyl-6-((3-oxomorpholino)methyl)-3,4-dihydro-1,8-naphthyridine-1(2H)-carboxamide]",–,–
1.3,20.3,"CC(C)Nc1cc(NC(=O)N2CCCc3cc(C(F)F)c(C=O)nc32)ncc1C#N [N-(5-cyano-4-(isopropylamino)pyridin-2-yl)-6-(difluoromethyl)-7-formyl-3,4-dihydro-1,8-naphthyridine-1(2H)-carboxamide]",–,–
0.7,4.9,"COC(C)(C)CNc1cc(NC(=O)N2CCCc3cc(CN(C)C(C)=O)c(C=O)nc32)ncc1C#N [N-(5-cyano-4-((2-methoxy-2-methylpropyl)amino)pyridin-2-yl)-7-formyl-6-((N-methylacetamido)methyl)-3,4-dihydro-1,8-naphthyridine-1(2H)-carboxamide]",–,–
0.3,6.7,"CC(C)Oc1cc(NC(=O)N2CCCc3cc(CN4C[C@H](N(C)C)CC4=O)c(C=O)nc32)ncc1C#N [(R)-N-(5-cyano-4-isopropoxypyridin-2-yl)-6-((4-(dimethylamino)-2-oxopyrrolidin-1-yl)methyl)-7-formyl-3,4-dihydro-1,8-naphthyridine-1(2H)-carboxamide]",–,–
0.2,10.2,"CCNc1cc(NC(=O)N2CCCc3cc(CN(CC)C(=O)CN(C)C)c(C=O)nc32)ncc1C#N [N-(5-cyano-4-(ethylamino)pyridin-2-yl)-6-((2-(dimethylamino)-N-ethylacetamido)methyl)-7-formyl-3,4-dihydro-1,8-naphthyridine-1(2H)-carboxamide]",–,–
